Here are results for one compound from patent publication US8629177B2, “Nanoencapsulated delta-9-tetrahydrocannabinol” (Aphios Corporation, priority 2010, dated 2014).

Series [1] can be described thus: 6-week stability of nanoencapsulated and naked Δ9-THC at 4, 25 and 40° C. Format: physicochemical. To be noted: 4° C., 25° C. and 40° C. Here is the method: (§1) Stability Studies: Shelf stability studies were conducted with Δ9-THC, Δ9-THC polymer nanospheres and formulations of the aforementioned. The following tests were performed: (i) physical appearance; and (ii) Δ9-THC content and integrity. Statistical analysis of the data sets were performed using SYSTAT®.
Stability studies were conducted on polymer nanoencapsulated Δ9-THC (THC-12-1) and naked Δ9-THC samples over a 6-week period at 4° C., 25° C. and 40° C.

The test system of another series is Fischer rats. To be noted: cited from earlier work.
Series [2] in a line: Stability of Δ9-THC in collection buffer compositions and at different pH. Type of series: physicochemical. As for the experimental part: as §1
The composition of the buffer was determined from stability studies with Δ9-THC at different conditions. […] Stability experiments were also conducted with Δ9-THC at pH=4, 7 and 10. […] Experiments were also used to determine that a low concentration of PVA was adequate for […] and minimizing foaming in the collection buffer. The buffer was deareated to remove dissolved oxygen since Δ9-THC is very sensitive to oxygen. A 10% sucrose buffer was utilized based on prior experimental data for this and other projects to preserve particle integrity after lyophilization. Prior to lyophilization, these products were placed in a −80° C. freezer until they were frozen solid. Samples were then lyophilized for a 24 hour period. These samples were reconstituted in distilled, degasified water and were analyzed using HPLC and particle size analysis via dynamic light scattering. After lyophilization, particle sizes of THC-19 and THC-21 were reduced to 287 and 230 nm respectively, and the recovery efficiencies were 77% and 95% respectively.

Like-named read-outs stand apart in the source and are kept apart here.

For orientation: LD50 means the dose at which mortality reaches 50%. In the case of `CCCCCc1cc(O)c2c(c1)OC(C)(C)[C@@H]1CCC(C)=C[C@@H]21` [Δ9-THC, delta-9-tetrahydrocannabinol], the degradation by temperature entry in series [1] (6-week period) is recorded as “degrades almost equally at each temperature”. Besides, the “degradation after 6 weeks” value in series [1] (after 6 weeks) was “most of the Δ9-THC is degraded”. For the same compound, the LD50 is given as 730 mg/kg in the series on Fischer rats (females, orally, sesame oil vehicle); 40 mg/kg in the series on Fischer rats (males, females, i.v.); 105.7 mg/kg in the series on Fischer rats (males, females, inhalation); 1,270 mg/kg in the series on Fischer rats (males, orally, sesame oil vehicle); 800 mg/kg in the series with Fischer rats (males, orally, sesame oil, 1% polysorbate 80, saline emulsion). In the series with Fischer rats (males, females, inhalation, corrected), the “LD50 corrected for particulate losses and pulmonary adsorption” value is 42 mg/kg. For the same compound, the “stability at pH=4, 7 and 10” value in series [2] (pH 4, 7, 10 compared) is given as “most stable at pH=4”. The “stability in 10% sucrose/0.1% PVA solution with 40% ethanol” value in series [2] (six day study, 40% ethanol) is “stable if 40% ethanol is introduced”. In series [2] (six day study, PVA-sucrose solution without sufficient ethanol (0%, 20%, 30%)), the “stability in 10% sucrose/0.1% PVA solution” value is given as “degrades in the PVA-sucrose solution”.
